Assay results from PubChem BioAssay (NCI).
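Method: 48-hour compound exposure of cells in 96-well plates, five concentrations, linear interpolation of endpoints. Abbreviation: GI50, concentration required for 50% inhibition of growth. TGI: concentration producing complete growth inhibition.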

Experiments:
Assay in all cases: inhibition of tumour cell growth, NCI panel, 48 h
HS 578T breast = test system: HS 578T breast
SK-MEL-2 melanoma = test system: SK-MEL-2 melanoma
TK-10 renal = test system: TK-10 renal
NCI/ADR-RES ovarian = test system: NCI/ADR-RES ovarian
MDA-MB-435 = test system: MDA-MB-435
HCT-15 colon = test system: HCT-15 colon
HL-60(TB) leukemia = test system: HL-60(TB) leukemia
SK-MEL-5 melanoma = test system: SK-MEL-5 melanoma
786-0 renal = test system: 786-0 renal
OVCAR-3 ovarian = test system: OVCAR-3 ovarian

SMILES	TGI (HS 578T breast) [µM]	TGI (SK-MEL-2 melanoma) [µM]	TGI (TK-10 renal) [µM]	TGI (NCI/ADR-RES ovarian) [µM]	TGI (MDA-MB-435) [µM]	TGI (HCT-15 colon) [µM]	TGI (HL-60(TB) leukemia) [µM]	TGI (SK-MEL-5 melanoma) [µM]	TGI (786-0 renal) [µM]	TGI (OVCAR-3 ovarian) [µM]	GI50 (HS 578T breast) [µM]	GI50 (SK-MEL-2 melanoma) [µM]	GI50 (TK-10 renal) [µM]	GI50 (NCI/ADR-RES ovarian) [µM]	GI50 (MDA-MB-435) [µM]	GI50 (HCT-15 colon) [µM]	GI50 (HL-60(TB) leukemia) [µM]	GI50 (SK-MEL-5 melanoma) [µM]	GI50 (786-0 renal) [µM]	GI50 (OVCAR-3 ovarian) [µM]
CCc1ccccc1N1CCN(C(=O)c2cc(OC)c(OC)c(OC)c2)CC1	0.0608	2.78	> 93.3	1.63	< 0.0113	> 23.6	1.62	3.79	> 100	0.463	–	–	–	–	–	–	–	–	–	–
CC1=CCC(OC(=O)C(C)(C)CCC(O)(C(=O)OC2(C(C)C)CCC3(C)OC3C2)C(C)C)(C(C)C)CC1 (stereo not given)	3.57	1.78	1.43	2.63	1.04	0.688	7.93	0.725	1.54	0.166	0.735	0.79	0.532	0.635	0.355	0.148	0.229	0.197	0.616	0.0833
N=c1c2c(-c3ccccc3)c(-c3ccccc3)n(Cc3ccccc3)c2ncn1CCCO	> 55.9	5.64	19.3	17.6	16.8	15.5	4.74	2.16	16.2	8.08	8.36	1.77	5.37	1.33	1.61	0.696	1.77	0.901	1.92	1.38
CN(C)c1ccc(-c2cc(-c3ccc(Nc4nc(Nc5ccccc5)nc(Nc5ccc(Cl)cc5)n4)cc3)nc(N)n2)cc1	20.2	43.5	38.7	> 100	74.9	> 100	12.2	11.6	46	28.9	2.57	7.18	5.68	9.23	4.83	4.26	3.2	1.89	6.32	5.77
COC(=O)c1cc(-c2cc(OC)c(OC)c(OC)c2)[nH]c1N/N=C/c1c(Cl)cccc1Cl	> 27	17.9	2.68	18.4	8.61	> 100	> 100	17.6	7.18	3.02	1.15	3.01	0.528	1.46	0.247	16	–	3.17	2.03	0.57
NC(=O)c1oc([N+](=O)[O-])c(-c2ccccc2)c1-c1ccccc1	28.2	36.3	72.8	57.2	28.7	35.4	70	14.2	89.7	22.7	–	–	–	–	–	–	–	–	–	–
C[C@]12CC[C@@H]3c4ccc(O)cc4CC[C@H]3[C@@H]1CC[C@@H]2NS(=O)(=O)c1cccc(C(F)(F)F)c1	15.6	13	13.3	16.9	8.62	5.23	15.5	3.29	8.95	8.6	3.24	3.7	4.05	3.73	2.8	2.17	3.54	1.79	3.06	2.95
CCN1CCN(CC(=O)Nc2nc3ccc(NCc4ccc(Cl)cc4)cc3s2)CC1	9.09	3.98	7.45	> 100	3.81	4.66	3.87	3.07	20.1	16.8	2.59	2.02	2.84	2.88	1.9	1.95	1.95	1.67	6.38	3.16
Nc1ncnc2c1ncn2CC(O)C(=O)O (stereo not given)	> 100	> 100	> 100	> 100	> 100	> 100	> 100	> 100	> 100	> 100	–	–	–	–	–	–	–	–	–	–
CCCCCCC#Cc1ccccc1C#CCO	39.4	39.8	61.4	34.4	37.2	> 100	> 100	30.8	96.1	27.6	17.2	18.9	22.6	18.7	18.4	35.9	38.7	16.8	31.3	14.5
NC1=C(Br)C(=O)c2ncccc2C1=O	2.84	1.49	5.81	6.12	0.313	1.65	2.81	1.46	2.99	2.33	0.37	–	–	0.987	0.168	–	–	–	–	–
C/C([O-])=C1\Cc2ccccc2C1=O.C/C([O-])=C1\Cc2ccccc2C1=O.CC[O-].CC[O-].[Ti+4]	47.2	33.6	> 100	> 100	43	79.4	50.8	> 57.8	77.6	> 100	11.7	13.5	32.2	23.4	17.6	11.8	13.1	19.3	20.8	24
O=C1C=C[C@@]23C[C@@H](Nc4c(O)c5c6c(c42)=NCCC=6C=N5)SC3=C1	19.8	4.03	27.7	10.1	2.98	7.94	5.61	3.38	14.6	3.76	3.75	1.94	–	2.88	–	2.85	–	1.93	4.34	1.5
COc1cc(C(O)c2nc3ccccc3s2)cc(OC)c1OC (stereo not given)	> 100	> 100	> 100	> 100	> 100	> 100	> 100	79.5	> 100	> 100	40.5	> 100	47.3	8.96	20.4	> 100	14.2	7.35	> 100	88.9
O=Cc1cn(Cc2cccc(Cl)c2)c2ccccc12	34.1	26.4	1.27	28.2	28.5	25.2	29.9	17.4	24.4	16.6	7.27	7.7	0.136	7.99	12.2	11.6	7.5	4.1	8.95	2.7
COc1ccc2c(c1)c(-c1nc(-c3c[nH]c4ncccc34)cs1)cn2CCCCN1CCOCC1	5.82	3.83	18	5.78	3.17	4.14	3.85	3.16	3.3	3.74	2.05	1.97	5.25	2.34	1.7	1.96	1.94	1.75	1.78	1.87
Cn1ccnc1C(=O)/C=C/c1ccc(CC(=O)Nc2ccc(S(F)(F)(F)(F)F)cc2)cc1	16.4	10	9.5	9.35	12.5	11.7	4.47	5.48	3	4.91	4.91	3.59	4.05	3.53	4.04	0.878	0.62	3.02	0.788	2.18
CC(C)[C@@]12C[C@@H](OC(=O)COC(=O)/C=C/c3ccccc3)[C@@](C)(O1)[C@@H]1CC[C@@H](C)[C@H]1[C@@H]2OC(=O)/C=C/c1ccccc1	0.0774	> 100	> 100	> 100	> 100	> 100	> 100	> 100	> 100	> 100	0.0187	> 100	> 100	0.569	> 100	> 100	> 92.2	> 100	> 27.1	> 100
COc1ccc(C(=O)/C=C/c2c(C(F)(F)F)nc3sccn23)cc1OC	16.8	92.5	> 100	10.6	> 100	> 100	3.86	> 100	> 100	6.14	2.51	4.08	8.76	1.88	1.85	2.54	1	4.2	5.67	2.12
Cc1nc2sc(C(=O)Nc3cccc4ccccc34)c(N)c2cc1C(=O)/C=C/c1ccccc1	> 50	> 39	8.88	0.593	0.274	0.789	1.82	1.69	0.979	0.593	0.281	0.501	1.28	0.173	0.116	0.185	0.353	0.379	0.25	0.181
C=CC1=C[C@@H]2[C@@H]3O[C@]4(CC[C@H](O4)[C@@H](C)C[C@@H](O)C3=O)C[C@H](O)C3=NCC[C@@]32CC1	< 0.00333	0.0117	0.00385	0.00511	0.00334	< 0.00333	< 0.00333	< 0.00333	0.00341	< 0.00333	< 0.00333	< 0.00333	< 0.00333	< 0.00333	< 0.00333	< 0.00333	< 0.00333	< 0.00333	< 0.00333	< 0.00333
CCc1cccc2c3c(sc12)C(c1ccc(Cl)cc1)C(C#N)=C(N)O3 (stereo not given)	2.6	19.2	15.4	2.24	0.463	9.59	9.48	12	14.7	2.67	0.363	1.25	3.18	0.349	0.196	0.418	0.355	0.898	0.94	0.384
O=C(/C=C/c1cccs1)c1ccc(Nc2nc(Nc3ccc(F)cc3)nc(Nc3ccc(F)cc3)n2)cc1	74.3	> 100	> 100	> 100	67.6	> 100	> 100	> 100	> 100	35.3	23.8	44.4	40.4	31.3	24.5	37.4	62.2	56.4	38.5	17.7
COc1ccc(C(=O)COc2cccc(/C=C3\CSc4ccccc4C3=O)c2)cc1	4.91	3.49	9.79	9.64	4.62	6.07	> 23.2	3.27	3.69	3.65	0.424	1.86	2.73	3.08	1.98	2.08	2.25	1.78	1.75	1.88
CN(CC(=O)O)c1ccc(/C=C/c2ccnc3ccccc23)cc1	75	44.6	47.7	> 100	51.1	> 100	48.2	31.7	> 100	> 100	–	–	–	–	–	–	–	–	–	–
CC(=O)NCCSC(=O)c1ccccc1	5.52	0.827	0.475	0.688	0.371	1.04	0.829	0.0801	0.425	0.944	–	–	–	–	–	–	0.026	–	–	–
